Read-outs that look alike come from different tables or passages of the source.
Columns and labels:
[1] = tested on: HepG2; assay: MTT anti-proliferative assay, HepG2; format: cell-based, Human; settings: read-out: IC50 ± SD, HepG2
Description: (§1) The cells proliferations were determined by MTT [3-(4,5-dimethylthiazol-2-yl)-2,5-diphenyltetrazolium bromide] assays, wherein MTT color intensity was directly associated with the number of healthy, living cells. The three cancer cell lines, i.e., MCF-7, Michigan Cancer Foundation-7; HepG2, Human hepatocellular carcinoma; and HCT-116, Human colorectal carcinoma, were obtained from the Laboratory of Parasitology, Faculty of Medicine, Universitas Gadjah Mada Indonesia. The cells were cultured in DMEM (Dulbecco’s Modified Eagle’s Medium) (Gibco, Waltham, MA, USA) with 10% Fetal Bovine Serum (FBS, Gibco), 2% Sodium bicarbonate (NaHCO3, Gibco), and HEPES (4-2(2-hydroxyethyl)-1-piperazine ethane sulfonic acid) (Invitrogen). The cell lines were maintained at 37 °C in a humidified incubator containing 5% CO2. The IC50 values as µM were determined after 48-h of compounds incubations with the cells. The assays were determined as mean ± SD: Standard Deviation (n = 3) (p < 0.005, compared with the standard value).

[2] = target: T1, Aurora-B (Homo sapiens, UniProt Q96GD4); assay: Radiometric protein kinase assay, Aurora-B; format: biochemical
T1 construct: purchased Sigma-Aldrich
Description: (§2) The radiometric protein kinase assays (RPKA) were used to investigate the kinase inhibitory effects of the isolated compounds. The method was dependent on the incorporation of radioactive ^33P isotope with ATP, and the percentage of phosphorylation was determined using the microplate-scintillation counter (Microbeta, Wallac, Finland) method. The half-maximal inhibitory concentration (IC50) values of compounds were measured by a microplate-scintillation counter. The control mixture (without peptide substrate) measures endogenous phosphorylation of proteins in the Protein Kinase Sample by-^33P-ATP. The purified protein kinases were used as positive controls for the assay (Sigma-Aldrich, St. Louis, MO, USA).

[3] = target: T2, Aurora-A (Homo sapiens, UniProt O14965); assay: Radiometric protein kinase assay, Aurora-A; format: biochemical
T2 construct: purchased Sigma-Aldrich
T2 sequence (O14965 1-403): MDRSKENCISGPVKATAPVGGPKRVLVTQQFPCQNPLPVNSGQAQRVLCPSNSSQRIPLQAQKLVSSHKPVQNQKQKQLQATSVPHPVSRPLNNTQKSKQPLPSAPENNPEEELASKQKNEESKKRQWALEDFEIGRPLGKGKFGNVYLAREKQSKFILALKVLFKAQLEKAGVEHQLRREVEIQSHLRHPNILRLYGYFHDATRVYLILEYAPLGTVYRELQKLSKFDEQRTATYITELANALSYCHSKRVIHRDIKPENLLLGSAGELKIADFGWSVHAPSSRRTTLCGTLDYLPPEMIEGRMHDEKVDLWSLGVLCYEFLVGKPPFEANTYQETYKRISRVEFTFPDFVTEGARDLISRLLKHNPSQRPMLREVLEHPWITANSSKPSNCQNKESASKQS
Description: as §2

[4] = tested on: HCT-116; assay: MTT anti-proliferative assay, HCT-116; format: cell-based, Human; settings: read-out: IC50 ± SD, HCT-116
Description: as §1

[5] = tested on: MCF-7; assay: MTT anti-proliferative assay, MCF-7; format: cell-based; settings: read-out: IC50 ± SD, MCF-7
Description: as §1

[6] = Homo sapiens, HepG2, MTT assay, 48-h incubation, n = 3
[7] = radiometric kinase assay, 33P-ATP, average of three independent experiments, read-out: IC50 Values, Aurora-B
[8] = radiometric kinase assay, 33P-ATP, average of three independent experiments, read-out: IC50 Values, Aurora-A
[9] = Homo sapiens, HCT-116, MTT assay, 48-h incubation, n = 3
[10] = Homo sapiens, MCF7, MTT assay, 48-h incubation, n = 3
[11] = MTT assay, 48-h incubation, n = 3

T1 sequence (Q96GD4 whole entry): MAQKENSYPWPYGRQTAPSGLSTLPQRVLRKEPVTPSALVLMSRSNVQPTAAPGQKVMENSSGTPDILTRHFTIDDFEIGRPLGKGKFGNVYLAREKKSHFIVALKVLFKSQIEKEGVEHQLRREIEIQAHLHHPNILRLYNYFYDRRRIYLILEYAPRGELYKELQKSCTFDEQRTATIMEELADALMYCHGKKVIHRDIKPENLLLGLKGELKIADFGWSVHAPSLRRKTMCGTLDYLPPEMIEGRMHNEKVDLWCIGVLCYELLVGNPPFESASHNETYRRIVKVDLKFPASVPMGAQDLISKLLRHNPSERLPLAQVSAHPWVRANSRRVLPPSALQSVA

Row | Structure (SMILES) | IC50 ([1]; Homo sapiens, HepG2, 48 h) [µM] | IC50 [2] [µM] | IC50 [3] [µM] | IC50 ([4]; Homo sapiens, HCT-116, 48 h) [µM] | IC50 ([5]; Homo sapiens, MCF7, 48 h) [µM] | IC50 [1, 6] [µM] | IC50 [2, 7] [µM] | IC50 [3, 8] [µM] | IC50 [4, 9] [µM] | IC50 [5, 10] [µM] | other results
1 | COc1cc2c3c(c4cc(OC)c(OC)cc4c2cc1OC)CN1CCC[C@@H]1C3 [Compound 1, (-)-Tylophorine] | 40.1 ± 2.94 | 18.3 ± 1.32 | 21.4 ± 1.24 | 142 ± 3.06 | 126 | – | – | – | – | – | –
2 | COc1cc2c3c(c4cc(OC)c(OC)cc4c2cc1OC)[C@@H](O)[C@H]1CCCN1C3 [Compound 2, 2,3,6,7-tetramethoxy-14β-hydroxy-phenanthroindolizidine] | – | – | – | – | – | 35.3 ± 2.97 | 10.2 ± 1.21 | 16.2 ± 1.43 | 75.5 | 50.7 ± 2.86 | –
3 | COc1ccc2c3c(c4cc(OC)c(O)cc4c2c1)C[N+]1([O-])CCCC1C3O (stereo not drawn) [Compound 6, 14α-hydroxy-6-demethyltylophorinine N-Oxide] | – | – | – | – | – | 15.3 ± 2.04 | 6.5 ± 0.76 | 2.6 ± 0.86 | 65.6 ± 2.24 | 12.2 ± 1.81 | –
4 | COC(=O)[C@]1(O)C[C@@H](O)[C@@H](O)[C@H](OC(=O)/C=C/c2ccc(O)c(O)c2)C1 [Compound 9, chlorogenic acid methyl ester] | – | – | – | – | – | > 200 | – | – | > 200 | > 200 | –
5 | COc1ccc(C2=C(c3ccc(OC)c(OC)c3)CN3CCCC3C2)cc1OC (centres unmarked) [Compound 7, 6,7-Bis (3,4-dimethoxyphenyl)-1,2,3,5,8,8a-hexahydroindolizine] | > 200 | > 100 | > 100 | > 200 | > 200 | – | – | – | – | – | –
6 | COc1ccc2c3c(c4cc(OC)c(OC)cc4c2c1)C[N+]1([O-])CCC[C@H]1[C@H]3O (stereo partly drawn) [Compound 4, 3,6,7-trimethoxy-14α-hydroxy-phenanthroindolizidine-N-Oxide] | – | – | – | – | – | 197 | > 100 | > 100 | > 200 | > 200 | –
7 | COc1ccc2c3c(c4cc(OC)c(O)cc4c2c1)CN1CCC[C@H]1[C@H]3O [Compound 5, 14α-hydroxy-6-demethyl Tylophorinine] | – | – | – | – | – | 4.77 ± 2.11 | 1.3 ± 0.58 | 0.6 ± 0.72 | 20.1 ± 1.94 | 6.45 ± 2.06 | –
8 | O=C(/C=C/c1ccc(O)c(O)c1)O[C@@H]1C[C@](O)(C(=O)O)C[C@@H](O)[C@H]1O [Compound 8, chlorogenic acid] | – | – | – | – | – | 170 | – | – | > 200 | 134 | –
9 | COc1ccc2c3c(c4cc(OC)c(OC)cc4c2c1)CN1CCC[C@H]1[C@@H]3O [Compound 3, 3,6,7-trimethoxy-14α-hydroxy-phenanthroindolizidine] | 23.8 ± 3.02 | 3.6 ± 0.93 | 4.1 ± 1.08 | 87 ± 3.08 | 32 ± 2.64 | – | – | – | – | – | –
10 | N.N.[Cl][Pt][Cl] [Cisplatin, reference compound] | – | – | – | – | – | – | – | – | – | – | IC50 [1, 11]: 12.9 ± 0.91 µM; IC50 [4, 11]: 14.4 ± 1.69 µM; IC50 [5, 11]: 5.7 ± 0.76 µM

Reference: publication PMC9144581, “In Vitro Anti-Proliferative, and Kinase Inhibitory Activity of Phenanthroindolizidine Alkaloids Isolated from Tylophora indica” (Plants, 2022)
